System: CD34+ cells from cord blood
Assay: Expansion of cord blood CD34+ cells, seven-day culture (Example 35)
Assay type: cell-based, human
Conditions: sample compound 2 μM, normalized fold change days 1 to 7
Procedure: CD34+ cells from cord blood were purchased from STEMCELL Technologies. Primary human CD34+ cells were isolated from cord blood samples using positive immunomagnetic separation techniques. Cells were thawed and gradually brought to room temperature. Samples were washed, then placed in overnight culture in StemSpan with 100 ng/ml each of FLT3L, TPO, SCF, and TL-6. Eighteen to twenty-four hours later (day 1), cells were counted and immunophenotyped (flow cytometry on an Invitrogen Attune N×T cytometer).
Approximately 1000 live cells were plated into each well of 96-well plates; exact cell numbers dispensed per well were quantified with flow cytometry for later calculations.
Media for testing compounds of Formula I was prepared using Alpha MEM without phenol red, 10% (v/v) heat inactivated fetal bovine serum. Culture conditions also included an antibiotic solution that includes penicillin, streptomycin, and amphotericin B to avoid contamination. Additional media components and concentrations used for the compounds tested are described in Table 5.
All incubations for this experiment took place at 3% oxygen (controlled by nitrogen) and 5% CO2. Following seven days of culture, cells from wells were collected and phenotypes were analyzed (flow cytometry on an Invitrogen Attune N×T cytometer).
Table 6 below, summarizes the relative expansive effect of the screened compounds at the indicated concentration. The data in Table 6 is reported as the relative expansive effect. The relative expansive effect is a normalized value of the fold changes shown in each of the figures. It is calculated as shown below: […]

**Q.** `CC(C)(C)C(=O)Nc1ccc2c(c1)C(C#N)c1ccccc1-2` (stereo not shown) [Compound 1.026, N-(9-cyano-9H-fluoren-2-yl)pivalamide] was tested. Which “CD90 effect (relative expansive effect on CD34+/CD133+/CD90+ cells)” value did it give?
**A.** ++ (1.44 ≤ x < 1.8)

**Q.** And the “CD133 effect (relative expansive effect on CD34+/CD133+ cells)” value?
**A.** ++ (1.44 ≤ x < 1.8)

**Q.** `CC(=O)Oc1ccc2c(c1)C(=O)c1cc(OC(C)=O)ccc1-2` [Compound 1.027, 9-oxo-9H-fluorene-2,7-diyl diacetate] was tested. Which “CD90 effect (relative expansive effect on CD34+/CD133+/CD90+ cells)” value did it give?
**A.** ++ (1.44 ≤ x < 1.8)

**Q.** And the “CD133 effect (relative expansive effect on CD34+/CD133+ cells)” value?
**A.** ++ (1.44 ≤ x < 1.8)

**Q.** Which results are given for `CC(C)(C)C(=O)Nc1ccc2c(c1)/C(=N\O)c1ccccc1-2` [Compound 1.028, N-(9-(hydroxyimino)-9H-fluoren-2-yl)pivalamide]?
**A.** CD90 effect (relative expansive effect on CD34+/CD133+/CD90+ cells): +++ (1.8 ≤ x < 2.16); CD133 effect (relative expansive effect on CD34+/CD133+ cells): +++ (1.8 ≤ x < 2.16)

Same assay, conditions: sample compound 8 μM, normalized fold change days 1 to 7

**Q.** `CC(=O)OC1c2ccccc2-c2ccc(NC(=O)C(C)(C)C)cc21` (stereo not shown) [Compound 1.024, 2-pivalamide-9H-fluoren-9-yl acetate] was tested. Which “CD90 effect (relative expansive effect on CD34+/CD133+/CD90+ cells)” value did it give?
**A.** ++++ (2.16 ≤ x < 2.52)

**Q.** What about the “CD133 effect (relative expansive effect on CD34+/CD133+ cells)” value of the same compound?
**A.** +++ (1.8 ≤ x < 2.16)

**Q.** `COC1c2ccccc2-c2ccc(NC(=O)C(C)(C)C)cc21` (stereo not shown) [Compound 1.025, N-(9-methoxy-9H-fluoren-2-yl)pivalamide] was tested. Which “CD90 effect (relative expansive effect on CD34+/CD133+/CD90+ cells)” value did it give?
**A.** ++++ (2.16 ≤ x < 2.52)

**Q.** And the “CD133 effect (relative expansive effect on CD34+/CD133+ cells)” value?
**A.** +++ (1.8 ≤ x < 2.16)

**Q.** Which “CD90 effect (relative expansive effect on CD34+/CD133+/CD90+ cells)” value does the source give for `CC(=O)Nc1ccc2c(c1)C(O)c1ccccc1-2` (stereo not shown) [Compound 1.029, N-(9-hydroxy-9H-fluoren-2-yl)acetamide] here?
**A.** ++++ (2.16 ≤ x < 2.52)

**Q.** And the “CD133 effect (relative expansive effect on CD34+/CD133+ cells)” value?
**A.** ++++ (2.16 ≤ x < 2.52)

Same assay, conditions: sample compound 10 μM, normalized fold change days 1 to 7

**Q.** Which “CD90 effect (relative expansive effect on CD34+/CD133+/CD90+ cells)” value does the source give for `CC(C)(C)C(=O)Oc1ccc2c(c1)C(O)c1ccccc1-2` (stereo not shown) [Compound 1.030, 9-hydroxy-9H-fluoren-2-yl pivalate] here?
**A.** +++ (1.8 ≤ x < 2.16)

**Q.** And the “CD133 effect (relative expansive effect on CD34+/CD133+ cells)” value?
**A.** +++ (1.8 ≤ x < 2.16)

**Q.** With `O=C(Nc1ccc2c(c1)C(O)c1ccccc1-2)C1CCCCO1` (stereo not shown) [Compound 1.031, N-(9-hydroxy-9H-fluoren-2-yl)tetrahydro-2H-pyran-2-carboxamide] as the compound, how does the “CD90 effect (relative expansive effect on CD34+/CD133+/CD90+ cells)” value read?
**A.** ++ (1.44 ≤ x < 1.8)

**Q.** What about the “CD133 effect (relative expansive effect on CD34+/CD133+ cells)” value of the same compound?
**A.** +++ (1.8 ≤ x < 2.16)

**Q.** `O=C(Nc1ccc2c(c1)C(O)c1ccccc1-2)c1ccc(O)cc1` (stereo not shown) [Compound 1.032, 4-hydroxy-N-(9-hydroxy-9H-fluoren-2-yl)benzamide] was tested. Which “CD90 effect (relative expansive effect on CD34+/CD133+/CD90+ cells)” value did it give?
**A.** ++ (1.44 ≤ x < 1.8)

**Q.** And the “CD133 effect (relative expansive effect on CD34+/CD133+ cells)” value?
**A.** ++ (1.44 ≤ x < 1.8)

**Q.** Which results are given for `CN(C)C(=O)Nc1ccc2c(c1)C(O)c1ccccc1-2` (stereo not shown) [Compound 1.033, 3-(9-hydroxy-9H-fluoren-2-yl)-1,1-dimethylurea]?
**A.** CD90 effect (relative expansive effect on CD34+/CD133+/CD90+ cells): ++ (1.44 ≤ x < 1.8); CD133 effect (relative expansive effect on CD34+/CD133+ cells): +++ (1.8 ≤ x < 2.16)

**Q.** Which “CD90 effect (relative expansive effect on CD34+/CD133+/CD90+ cells)” value does the source give for `O=C(Nc1ccc2c(c1)C(O)c1ccccc1-2)C(Cl)(Cl)Cl` (stereo not shown) [Compound 1.034, 2,2,2-trichloro-N-(9-hydroxy-9H-fluoren-2-yl)acetamide] here?
**A.** +++++ (2.52 ≤ x)

**Q.** What about the “CD133 effect (relative expansive effect on CD34+/CD133+ cells)” value of the same compound?
**A.** +++++ (2.52 ≤ x)

**Q.** What does the source list for `Nc1ccc2c(c1)C(=O)c1ccccc1-2` [Compound 1.035]?
**A.** CD90 effect (relative expansive effect on CD34+/CD133+/CD90+ cells): +++ (1.8 ≤ x < 2.16); CD133 effect (relative expansive effect on CD34+/CD133+ cells): +++ (1.8 ≤ x < 2.16)

**Q.** Which results are given for `O=C1c2ccccc2-c2ccc([N+](=O)[O-])cc21` [Compound 1.036]?
**A.** CD90 effect (relative expansive effect on CD34+/CD133+/CD90+ cells): +++ (1.8 ≤ x < 2.16); CD133 effect (relative expansive effect on CD34+/CD133+ cells): ++ (1.44 ≤ x < 1.8)

**Q.** How did the “CD90 effect (relative expansive effect on CD34+/CD133+/CD90+ cells)” value turn out when `O=C1c2ccccc2-c2ccccc21` [Compound 1.037] was run?
**A.** ++ (1.44 ≤ x < 1.8)

**Q.** And the “CD133 effect (relative expansive effect on CD34+/CD133+ cells)” value?
**A.** + (x < 1.44)

From patent US20220315895A1, “METHODS OF MAKING OLIGOPOTENT AND UNIPOTENT PRECURSORS” (Transfusion Health, LLC, priority 2019, published 2022)
